In the NIST ThermoML archive (doi:10.1016/j.jct.2006.06.002):
± gives the expanded uncertainty stated by the source.

Test: refractive index (Na D-line) (dimensionless)
Conditions: 101.33 kPa, Liquid, Standard Abbe refractometry

Row | refractive index (303.15 K) | refractive index (293.15 K) | SMILES
1 | 1.4954 ± 0.0009 |  | c1ccccc1 [benzene]
2 |  | 1.3288 ± 0.0009 | CO [methanol]
